According to patent US7723527B2 (Janssen Pharmaceutica NV, priority 2003, dated 2010):

target: T1, human histamine H4 receptor (Homo sapiens, UniProt Q9H3N8); test: Binding assay on recombinant human histamine H4 receptor (3H-histamine displacement); conditions: competition binding with 3H-histamine; membranes of SK-N-MC or COS7 cells expressing human H4 receptor; Cheng-Prusoff, KD 5 nM, ligand 5 nM
T1 construct: expressed in transfected cells; host or cells: SK-N-MC cells or COS7 cells, transiently transfected; cell membranes used
Procedure, shortened: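 Membranes from SK-N-MC or COS7 cells transiently transfected with human H4R, incubated with ^3H-histamine (5-70 nM) at room temperature for 45 min, nonspecific binding with 10,000 nM histamine. Filtration and scintillation counting; compound affinity from displacement of ^3H-ligand across varying concentrations.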

Structure (SMILES) | Ki
CCN1CCC(CCCOc2ccc(-c3nc4c(C)cc(Cl)cc4[nH]3)c(C)c2)CC1 [Example 90, 6-Chloro-2-{4-[3-(1-ethyl-piperidin-4-yl)-propoxy]-2-methyl-phenyl}-4-methyl-1H-benzoimidazole] | 73 nM
Cc1cccc2[nH]c(-c3ccc(OCCN(C)C4CCN(C)CC4)cc3Cl)nc12 [Example 91, {2-[3-Chloro-4-(4-methyl-1H-benzoimidazol-2-yl)-phenoxy]-ethyl}-methyl-(1-methyl-piperidin-4-yl)-amine] | 633 nM
Cc1cc(OCCOC2CCN(C)CC2)ccc1-c1nc2c(C)cc(Cl)cc2[nH]1 [Example 92, 6-Chloro-4-methyl-2-{2-methyl-4-[2-(1-methyl-piperidin-4-yloxy)-ethoxy]-phenyl}-1H-benzoimidazole] | 113 nM
Cc1cc(OCCCC2=CCN(C)CC2)ccc1-c1nc2c(C)cc(Cl)cc2[nH]1 [Example 93, 6-Chloro-4-methyl-2-{2-methyl-4-[3-(1-methyl-1,2,3,6-tetrahydro-pyridin-4-yl)-propoxy]-phenyl}-1H-benzoimidazole] | 7 nM
Cc1cc(OCCCC2=CCN(C)CC2)ccc1-c1nc2c(C)c(F)ccc2[nH]1 [Example 94, 5-Fluoro-4-methyl-2-{2-methyl-4-[3-(1-methyl-1,2,3,6-tetrahydro-pyridin-4-yl)-propoxy]-phenyl}-1H-benzoimidazole] | 13 nM
Cc1c(F)ccc2[nH]c(-c3cccc(OCCCCC4CCN(C)CC4)c3)nc12 [Example 95, 6-Fluoro-7-methyl-2-{3-[4-(1-methyl-piperidin-4-yl)-butoxy]-phenyl}-1H-benzoimidazole] | 4 nM
Cc1cccc2[nH]c(-c3cccc(OCCCCC4CCN(C)CC4)c3)nc12 [Example 96, 7-Methyl-2-{3-[4-(1-methyl-piperidin-4-yl)-butoxy]-phenyl}-1H-benzoimidazole] | 1 nM
Cc1ccc2[nH]c(-c3cccc(OCCCCC4CCN(C)CC4)c3)nc2c1C [Example 97, 6,7-Dimethyl-2-{3-[4-(1-methyl-piperidin-4-yl)-butoxy]-phenyl}-1H-benzoimidazole] | 25 nM
Cc1cc(Cl)cc2[nH]c(-c3cccc(OCCCCC4CCN(C)CC4)c3)nc12 [Example 98, 5-Chloro-7-methyl-2-{3-[4-(1-methyl-piperidin-4-yl)-butoxy]-phenyl}-1H-benzoimidazole] | 28 nM
Cc1cc(C)c2nc(-c3cccc(OCCCCC4CCN(C)CC4)c3C)[nH]c2c1 [Example 99, 5,7-Dimethyl-2-{2-methyl-3-[4-(1-methyl-piperidin-4-yl)-butoxy]-phenyl}-1H-benzoimidazole] | 38 nM
Cc1c(OCCCCC2CCN(C)CC2)cccc1-c1nc2c(C)cc(Cl)cc2[nH]1 [Example 100, 5-Chloro-7-methyl-2-{2-methyl-3-[4-(1-methyl-piperidin-4-yl)-butoxy]-phenyl}-1H-benzoimidazole] | 41 nM
Cc1c(OCCCCC2CCN(C)CC2)cccc1-c1nc2c(C)c(F)ccc2[nH]1 [Example 101, 6-Fluoro-7-methyl-2-{2-methyl-3-[4-(1-methyl-piperidin-4-yl)-butoxy]-phenyl}-1H-benzoimidazole] | 55 nM
Cc1c(F)ccc2[nH]c(-c3cccc(OCCCOC4CCN(C)CC4)c3)nc12 [Example 102, 6-Fluoro-7-methyl-2-{3-[3-(1-methyl-piperidin-4-yloxy)-propoxy]-phenyl}-1H-benzoimidazole] | 321 nM
Cc1cc(Cl)cc2[nH]c(-c3ccc(OCCCN4CCN(C)CC4)nc3)nc12 [Example 103, 6-Chloro-4-methyl-2-{6-[3-(4-methyl-piperazin-1-yl)-propoxy]-pyridin-3-yl}-1H-benzoimidazole] | 41 nM
Cc1cccc2[nH]c(-c3ccc(OCCCN4CCN(C)CC4)nc3)nc12 [Example 104, 4-Methyl-2-{6-[3-(4-methyl-piperazin-1-yl)-propoxy]-pyridin-3-yl}-1H-benzoimidazole] | 266 nM
Cc1c(F)ccc2[nH]c(-c3ccc(OCCCN4CCN(C)CC4)nc3)nc12 [Example 105, 5-Fluoro-4-methyl-2-{6-[3-(4-methyl-piperazin-1-yl)-propoxy]-pyridin-3-yl}-1H-benzoimidazole] | 85 nM
Cc1cccc2[nH]c(-c3ccc(OCCCC4CCN(C)CC4)nc3)nc12 [Example 106, 4-Methyl-2-{6-[3-(1-methyl-piperidin-4-yl)-propoxy]-pyridin-3-yl}-1H-benzoimidazole] | 12 nM
Cc1ccc2[nH]c(-c3ccc(OCCCC4CCN(C)CC4)nc3)nc2c1C [Example 107, 4,5-Dimethyl-2-{6-[3-(1-methyl-piperidin-4-yl)-propoxy]-pyridin-3-yl}-1H-benzoimidazole] | 26 nM
CN1CCC(CCCOc2ccc(-c3nc4c(Cl)cccc4[nH]3)cn2)CC1 [Example 108, 4-Chloro-2-{6-[3-(1-methyl-piperidin-4-yl)-propoxy]-pyridin-3-yl}-1H-benzoimidazole] | 31 nM
Cc1cc(OCCCC2CCN(C)CC2)ncc1-c1nc2c(C)cc(Cl)cc2[nH]1 [Example 109, 6-Chloro-4-methyl-2-{4-methyl-6-[3-(1-methyl-piperidin-4-yl)-propoxy]-pyridin-3-yl}-1H-benzoimidazole] | 6 nM
Cc1cc(OCCCC2CCN(C)CC2)ncc1-c1nc2c(C)cccc2[nH]1 [Example 110, 4-Methyl-2-{4-methyl-6-[3-(1-methyl-piperidin-4-yl)-propoxy]-pyridin-3-yl}-1H-benzoimidazole] | 6 nM
Cc1cc(OCCCC2CCN(C)CC2)ncc1-c1nc2c(C)c(F)ccc2[nH]1 [Example 111, 5-Fluoro-4-methyl-2-{4-methyl-6-[3-(1-methyl-piperidin-4-yl)-propoxy]-pyridin-3-yl}-1H-benzoimidazole] | 21 nM
Cc1cc(OCCCC2CCN(C)CC2)ncc1-c1nc2c(C)c(C)ccc2[nH]1 [Example 112, 4,5-Dimethyl-2-{4-methyl-6-[3-(1-methyl-piperidin-4-yl)-propoxy]-pyridin-3-yl}-1H-benzoimidazole] | 6 nM
Cc1cc(C)c2nc(-c3cnc(OCCCC4CCN(C)CC4)cc3C)[nH]c2c1 [Example 113, 4,6-Dimethyl-2-{4-methyl-6-[3-(1-methyl-piperidin-4-yl)-propoxy]-pyridin-3-yl}-1H-benzoimidazole] | 4 nM
Cc1cc(OCCCC2CCN(C)CC2)ncc1-c1nc2c(Cl)cccc2[nH]1 [Example 114, 4-Chloro-2-{4-methyl-6-[3-(1-methyl-piperidin-4-yl)-propoxy]-pyridin-3-yl}-1H-benzoimidazole] | 11 nM

Now from value to molecule:

Ki | Structure (SMILES)
4 nM | Cc1c(F)ccc2[nH]c(-c3cnc(OCCCC4CCN(C)CC4)cc3Cl)nc12 [Example 115, 2-{4-Chloro-6-[3-(1-methyl-piperidin-4-yl)-propoxy]-pyridin-3-yl}-5-fluoro-4-methyl-1H-benzoimidazole]
12 nM | Cc1cccc2[nH]c(-c3cnc(OCCCC4CCN(C)CC4)cc3Cl)nc12 [Example 116, 2-{4-Chloro-6-[3-(1-methyl-piperidin-4-yl)-propoxy]-pyridin-3-yl}-4-methyl-1H-benzoimidazole]
5 nM | Cc1cc(Cl)cc2[nH]c(-c3cnc(OCCCC4CCN(C)CC4)cc3Cl)nc12 [Example 117, 6-Chloro-2-{4-chloro-6-[3-(1-methyl-piperidin-4-yl)-propoxy]-pyridin-3-yl}-4-methyl-1H-benzoimidazole]
4 nM | Cc1cc(C)c2nc(-c3cnc(OCCCC4CCN(C)CC4)cc3Cl)[nH]c2c1 [Example 118, 2-{4-Chloro-6-[3-(1-methyl-piperidin-4-yl)-propoxy]-pyridin-3-yl}-4,6-dimethyl-1H-benzoimidazole]
51 nM | COc1cc(OCCCC2CCN(C)CC2)ncc1-c1nc2c(C)cccc2[nH]1 [Example 119, 2-{4-Methoxy-6-[3-(1-methyl-piperidin-4-yl)-propoxy]-pyridin-3-yl}-4-methyl-1H-benzoimidazole]
94 nM | COc1cc(OCCCC2CCN(C)CC2)ncc1-c1nc2c(C)c(F)ccc2[nH]1 [Example 120, 5-Fluoro-2-{4-methoxy-6-[3-(1-methyl-piperidin-4-yl)-propoxy]-pyridin-3-yl}-4-methyl-1H-benzoimidazole]
60 nM | Cc1c(F)ccc2[nH]c(-c3ccc(OCCCC4=CCN(C)CC4)nc3)nc12 [Example 121, 5-Fluoro-4-methyl-2-{6-[3-(1-methyl-1,2,3,6-tetrahydro-pyridin-4-yl)-propoxy]-pyridin-3-yl}-1H-benzoimidazole]
71 nM | Cc1cccc2[nH]c(-c3ccc(OCCCC4=CCN(C)CC4)nc3)nc12 [Example 122, 4-Methyl-2-{6-[3-(1-methyl-1,2,3,6-tetrahydro-pyridin-4-yl)-propoxy]-pyridin-3-yl}-1H-benzoimidazole]
67 nM | Cc1cc(Cl)cc2[nH]c(-c3ccc(OCCCC4=CCN(C)CC4)nc3)nc12 [Example 123, 6-Chloro-4-methyl-2-{6-[3-(1-methyl-1,2,3,6-tetrahydro-pyridin-4-yl)-propoxy]-pyridin-3-yl}-1H-benzoimidazole]
86 nM | Cc1ccc2[nH]c(-c3ccc(OCCCC4=CCN(C)CC4)nc3)nc2c1C [Example 124, 4,5-Dimethyl-2-{6-[3-(1-methyl-1,2,3,6-tetrahydro-pyridin-4-yl)-propoxy]-pyridin-3-yl}-1H-benzoimidazole]
77 nM | Cc1cc(C)c2nc(-c3ccc(OCCCC4=CCN(C)CC4)nc3)[nH]c2c1 [Example 125, 4,6-Dimethyl-2-{6-[3-(1-methyl-1,2,3,6-tetrahydro-pyridin-4-yl)-propoxy]-pyridin-3-yl}-1H-benzoimidazole]
427 nM | Cc1c(Cl)ccc2[nH]c(-c3ccc(OCCCC4=CCN(C)CC4)nc3)nc12 [Example 126, 5-Chloro-4-methyl-2-{6-[3-(1-methyl-1,2,3,6-tetrahydro-pyridin-4-yl)-propoxy]-pyridin-3-yl}-1H-benzoimidazole]
